Patent EP4813403A1, “USE OF GLP-1R/GIPR DOUBLE-TARGET AGONIST IN PREPARING ANIMAL DRUG” (Hangzhou Zhongmeihuadong Pharmaceutical Co., Ltd., priority 2023, dated 2025)

Tests used:
[1] = Pharmacokinetics in C57 mice; conditions: in vivo; for MRT: C57, mouse; for AUC(0-t): read-out: AUC(0-t); for AUC(0-inf): read-out: AUC(0-∞); for half-life: read-out: T1/2 (converted)
Method: After subcutaneous or intravenous administration to C57 mice, plasma was collected and the drug concentration in plasma was determined to illustrate the in vivo pharmacokinetic properties of the compound according to the present invention. […] 20.0 µL of thawed plasma sample was taken. 20 µL of 50% aqueous methanol solution (containing 100 ng mL^-1 Tolbutamide) and 60 µL of acetonitrile were added sequentially to precipitate protein. The mixture was vortexed for 5 minutes, and centrifuged at 4815 rpm for 8 minutes. 50.0 µL of the supernatant was taken, into which 50.0 µL of 0.5% aqueous formic acid solution was added. The mixture was vortexed for 5 minutes. 50 µL of the mixture solution was sampled and injected into the LC-MS/MS to determine the drug concentration in plasma. Based on the drug concentration in plasma of the compounds in C57 mice, the pharmacokinetic parameters were calculated by applying the software Winnolin 8.3 in a non-compartmental model, and the results were shown in Table 7 and Table 8 below. Table 7 Average Pharmacokinetic Parameters after Single Subcutaneous Administration to Mice

[2] = Pharmacokinetics in cynomolgus monkeys; conditions: cynomolgus monkey, in vivo, cynomolgus monkeys; for half-life: read-out: T1/2 (converted)
Method: After subcutaneous or intravenous administration to cynomolgus monkeys, plasma was collected and the drug concentration in plasma was determined to illustrate the in vivo pharmacokinetic properties of the compound according to the present invention. […] 70.0 µL of thawed plasma sample was taken. 70 µL of acetonitrile (containing 1 ng/ml of the internal standard) was added to precipitate protein. […] The mixture was vortexed for 5 minutes. 10 µL of the mixture solution was sampled and injected into the LC-MS/MS to determine the drug concentration in plasma. […] Table 9 Average Pharmacokinetic Parameters after Single Subcutaneous Administration to Cynomolgus Monkeys

db/db mice [3] = experiment: Pharmacodynamic effects in db/db mice, single subcutaneous administration (blood glucose); assay type: in vivo; conditions: single s.c. 10 nmol/kg
In short: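 Male db/db mice aged 8-9 weeks, fed ad libitum, were grouped by initial glucose and body weight (n=6) and dosed once subcutaneously. Random blood glucose from tail tip was tracked over 0 to 120 hours against vehicle. Hypoglycemic duration is the longest time with a significant difference from vehicle (T-test, p<0.05).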

db/db mice [4] = experiment: Multiple administration experiment on db/db mice; assay type: in vivo; conditions: for AUC 4-25 day Glu / D28 FBG(Fasting Blood Glucose) / Liver Weight / Serum ALT / Serum TBIL / Serum TG: db/db mice, s.c. every 3 days for 4 weeks, Mean±SEM, 6 mice
Method: "Minimum effective dose" as disclosed in the present invention refers to the minimum administration dose at which the drug effect is produced.
"Efficacy dose" as disclosed in the present invention refers to the administration dose at which the drug effect is produced.
In this study, 7-8 week old male db/db mice were used. The db/db mice were placed in an individual ventilated cage (IVC) facility with a controlled temperature (20-26°C) and humidity (40-70%) and a controlled 12:12 h light-dark cycle. The mice received food and water ad libitum. Blood were sampled at the tail tip, and the base blood glucose was measured by a Roche blood glucose meter. The mice were randomly divided into groups according to the initial blood glucose and initial body weight (n=6/group), and each group had similar body weight and blood glucose.
The mice were subcutaneously administrated every 3 days for 4 weeks. Subcutaneous administration was conducted on days 1, 4, 7, 10, 13, 16, 19, 22 and 25. Random blood glucose was recorded every 3 days throughout the study. On day 28, the fasting blood glucose was measured. Then the blood was collected by orbital blood sampling. After the orbital blood sampling, the animals were sacrificed, and the liver was taken and weighed. After 1 to 2 hours, the collected blood was centrifuged at 3000 rpm for 10 min to separate the serum. Biochemical indicators such as triglyceride (TG), alanine aminotransferase (ALT), and total bilirubin (TBIL) were determined with a biochemical analyzer. The data results were statistically analyzed using GraphPad Prism8, and the statistical differences among the groups were analyzed following T-Test. Significant differences were identified at p<0.05.

human GLP-1R = human GLP-1R (Homo sapiens, UniProt P43220); experiment: In vitro binding activity to human GLP-1 receptor ([125I]GLP-1 displacement, crude cell membranes); parameters: expressed in transfected cells; conditions: ratio of the Ki value of the endogenous ligand to the Ki value of the test compound; larger ratio = stronger binding
[5] = mouse, sc, C57 mice, single subcutaneous administration
[6] = mouse, C57 mice, single intravenous administration
[7] = sc, single subcutaneous administration, 25 nmol/kg
[8] = single intravenous administration, 12.5 nmol/kg

Sequence of human GLP-1R (P43220 24-463): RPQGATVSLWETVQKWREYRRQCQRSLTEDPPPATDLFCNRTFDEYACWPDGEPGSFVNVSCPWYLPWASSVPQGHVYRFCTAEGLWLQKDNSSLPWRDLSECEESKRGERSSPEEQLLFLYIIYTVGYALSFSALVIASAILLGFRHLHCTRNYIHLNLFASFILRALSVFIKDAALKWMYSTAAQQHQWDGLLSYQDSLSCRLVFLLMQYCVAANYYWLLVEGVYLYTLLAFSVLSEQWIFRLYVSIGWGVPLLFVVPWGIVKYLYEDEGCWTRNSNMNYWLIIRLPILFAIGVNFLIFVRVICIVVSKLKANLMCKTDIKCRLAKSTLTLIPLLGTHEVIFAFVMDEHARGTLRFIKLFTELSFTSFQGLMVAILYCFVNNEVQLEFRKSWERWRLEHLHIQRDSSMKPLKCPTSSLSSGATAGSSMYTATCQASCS

Structure (SMILES): CC[C@H](C)[C@H](NC(=O)C(C)(C)NC(=O)[C@H](Cc1ccc(O)cc1)NC(=O)[C@H](CC(=O)O)NC(=O)[C@H](CO)NC(=O)[C@@H](NC(=O)C(C)(Cc1ccccc1)NC(=O)[C@@H](NC(=O)CNC(=O)[C@H](CCC(=O)O)NC(=O)C(C)(C)NC(=O)[C@@H](N)Cc1ccc(O)cc1)[C@@H](C)O)[C@@H](C)O)C(=O)NC(C)(C)C(=O)N[C@@H](CC(C)C)C(=O)N[C@@H](CC(=O)O)C(=O)N[C@@H](CCCCN)C(=O)N[C@@H](CCC(N)=O)C(=O)N[C@@H](C)C(=O)N[C@@H](CCC(N)=O)C(=O)N[C@@H](C)C(=O)N[C@@H](CCC(=O)O)C(=O)N[C@@H](Cc1ccccc1)C(=O)N[C@H](C(=O)N[C@@H](CCCCNC(=O)COCCOCCNC(=O)COCCOCCNC(=O)COCCOCCNC(=O)CC[C@H](NC(=O)CCCCCCCCCCCCCCCCCCCCC(=O)O)C(=O)O)C(=O)N[C@@H](Cc1c[nH]c2ccccc12)C(=O)N[C@@H](CC(C)C)C(=O)N[C@@H](CC(C)C)C(=O)N[C@@H](CCCCN)C(=O)NCC(=O)NCC(=O)N1CCC[C@H]1C(=O)N[C@@H](CO)C(=O)N[C@@H](CO)C(=O)NCC(=O)N[C@@H](C)C(=O)N1CCC[C@H]1C(=O)N1CCC[C@H]1C(=O)N1CCC[C@H]1C(=O)N[C@@H](CO)C(=O)N[C@@H](CCCCN)C(N)=O)C(C)C (some centres unmarked) [Compound P016]
- MRT ([1]; iv, MRT(0-t)): 19.9 h
- MRT ([1]; iv, MRT(0-∞)): 26.6 h
- MRT ([1]; sc, MRT(0-t)): 26 h
- MRT ([1]; sc, MRT(0-∞)): 35.9 h
- AUC(0-t) [1, 5]: 15900 ng·h/mL
- AUC(0-inf) [1, 5]: 18200 ng·h/mL
- Cmax ([1]; mouse, sc, C57 mice, single subcutaneous administration, read-out: Cmax): 434 ng/mL
- half-life [1, 5]: 23.1 h
- Tmax ([1]; mouse, sc, C57 mice, single subcutaneous administration, read-out: Tmax): 8 h
- AUC(0-t) [1, 6]: 11100 ng·h/mL
- AUC(0-inf) [1, 6]: 12100 ng·h/mL
- C0 ([1]; mouse, C57 mice, single intravenous administration, read-out: C0): 1150 ng/mL
- half-life [1, 6]: 20.1 h
- AUC(0-inf) [2, 7]: 323000 ± 44600 ng·h/mL
- AUC(0-t) [2, 7]: 319000 ± 41500 ng·h/mL
- Cmax [2, 7]: 3000 ± 481 ng/mL
- half-life [2, 7]: 60.4 ± 12.8 h
- Tmax ([2]; sc, single subcutaneous administration, 25 nmol/kg, read-out: Tmax): 40 ± 13.9 h
- AUC(0-inf) [2, 8]: 80000 ± 21100 ng·h/mL
- AUC(0-t) [2, 8]: 78200 ± 20300 ng·h/mL
- C0 [2, 8]: 1700 ± 335 ng/mL
- half-life [2, 8]: 59.8 ± 8.95 h
- inhibition of the blood glucose AUC, times of that of Tirzepatide (db/db mice [3]): 2.2 times
- Hypoglycemic Duration (db/db mice [3]; Group 2, longest time with p<0.05 vs. vehicle): 104 h
- Efficacy Dose (db/db mice [4]; db/db mice multiple administrations, dose with blood glucose AUC p<0.05 vs. Vehicle): 3 nmol/kg
- AUC 4-25 day Glu (db/db mice [4]; 3 nmol/kg): 256.38 ± 22 mmol·days/L
- D28 FBG(Fasting Blood Glucose) (db/db mice [4]; 3 nmol/kg): 10.42 ± 1.46 mmol/L
- Liver Weight (db/db mice [4]; 3 nmol/kg): 2.24 ± 0.1 g
- Serum ALT (db/db mice [4]; 3 nmol/kg): 137.93±34.59 U/L
- Serum TBIL (db/db mice [4]; 3 nmol/kg): 0.82 ± 0.13 µmol/L
- Serum TG (db/db mice [4]; 3 nmol/kg): 1.21 ± 0.04 mmol/L
- AUC 4-25 day Glu (db/db mice [4]; 10 nmol/kg): 249.25 ± 41.42 mmol·days/L
- D28 FBG(Fasting Blood Glucose) (db/db mice [4]; 10 nmol/kg): 12.5 ± 2.19 mmol/L
- Liver Weight (db/db mice [4]; 10 nmol/kg): 1.98 ± 0.12 g
- Serum ALT (db/db mice [4]; 10 nmol/kg): 128.94±16.93 U/L
- Serum TBIL (db/db mice [4]; 10 nmol/kg): 1.22 ± 0.28 µmol/L
- Serum TG (db/db mice [4]; 10 nmol/kg): 1.22 ± 0.24 mmol/L
- AUC 4-25 day Glu (db/db mice [4]; 30 nmol/kg): 163.98 ± 11.57 mmol·days/L
- D28 FBG(Fasting Blood Glucose) (db/db mice [4]; 30 nmol/kg): 6.05 ± 0.41 mmol/L
- Liver Weight (db/db mice [4]; 30 nmol/kg): 1.78 ± 0.08 g
- Serum ALT (db/db mice [4]; 30 nmol/kg): 97.7±12.36 U/L
- Serum TBIL (db/db mice [4]; 30 nmol/kg): 0.73 ± 0.16 µmol/L
- Serum TG (db/db mice [4]; 30 nmol/kg): 1.2 ± 0.05 mmol/L
- GLP-1R Ki ratio (human GLP-1R): 0.63
